# From paper PMC12047801, “Disrupting the OTUD4-USP7 deubiquitinase complex to suppress herpesvirus replication: a novel antiviral strategy” (PLOS Pathogens, 2025)
# “And” between values parts separate entries of the source, which are not always exact repeats. Equal values may be shown once. “Also recorded” adds a separate entry of the source. Read-outs that look alike come from different tables or passages of the source.
# Assays:
# USP7-TRAF domain = target: T1, USP7-TRAF domain (Homo sapiens, UniProt Q93009); assay: Surface plasmon resonance (SPR) analysis of peptide binding to USP7-TRAF
# T1 construct: The TRAF domain of human and murine USP7 (1-208 aa) was subcloned into pGEX-6p-1; GST (N); made in house; host or cells: E. coli BL21 (DE3)
# T1 sequence (Q93009 1-208): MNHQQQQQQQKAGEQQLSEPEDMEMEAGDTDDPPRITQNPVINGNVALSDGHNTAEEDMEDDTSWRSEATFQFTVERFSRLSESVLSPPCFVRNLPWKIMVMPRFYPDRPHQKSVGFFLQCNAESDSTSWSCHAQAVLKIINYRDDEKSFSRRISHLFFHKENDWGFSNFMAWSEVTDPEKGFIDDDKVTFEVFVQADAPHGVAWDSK
# [1] = test system: OTUD4-USP7 interaction in FLAG-OTUD4-expressing SLK.iBAC-GFP cells; type: cell-based
# [2] = test system: KSHV viral proteins in BCBL-1-Tet-K-RTA cells; type: cell-based; details: 100 μM
# MHV68 in NIH3T3 cells = type: cell-based
# [3] = test system: KSHV-RTA-WT lytic reactivation; type: cell-based
# [4] = test system: KSHV lytic replication in SLK.iBAC-GFP cells transduced with vector control or OTUD4; type: cell-based; set-up: KSHV infectious units: unit not given here
# RTA in HEK293T cells = type: cell-based, KSHV
# [5] = test system: KSHV lytic reactivation in SLK.iBAC-GFP cells; type: cell-based
# Experimental: (A) Graphical illustration showing the rationale underlying our peptide design. (B) Surface Plasmon Resonance (SPR) analysis assessing the interaction of the USP7-TRAF domain with the designed peptides p2 and p8. (C) SLK.iBAC-GFP cells were induced with doxycycline (Dox, 1 μg/mL) and sodium butyrate (0.5 mM) in the presence of the Tat fusion peptides (100 μM). All the peptides were fused to an N-terminal Tat47-57 peptide ([…]) via a flexible GG linker. The supernatants containing infectious virions were collected 48 h post-induction and used to infect HEK293T cells. KSHV infectious units were calculated based on the percentage of GFP-positive cells determined by flow cytometry. Data are mean ± s.d. of N = 3 independent biological replicates. (D) SLK.iBAC-GFP cells were induced with doxycycline (Dox, 1 μg/mL) and sodium butyrate (0.5 mM) in the presence of increasing amount of p8 (0, 10, 50, 100 μM). KSHV infectious units were determined 48 h post-induction. Data are mean ± s.d. of N = 3 independent biological replicates. […] Data are mean ± s.d. of N = 3 independent biological replicates. […] Cell viability was assessed by measuring ATP levels 48 h post-induction. Data are mean ± s.d. of N = 3 independent biological replicates.
# Peptides p1 to p12 (S1A Fig) were synthesized by Sangon Biotech (Shanghai, China) with 95% purity. The Tat-fused peptides in Fig 1C consisted of the corresponding peptides conjugated to the Tat47-57 peptide ([…]) and two glycine linker residues (QYAOBIO, Suzhou, China). The peptides p8-DRI (nssqsasqnvpprrrqrrkkrGy) and p2-DRI (iesndedavepprrrqrrkkrGy) were synthesized using D-amino acids in a retro-reversed sequence with 95% purity (QYAOBIO, Suzhou, China). The peptide p8-m ([…]) was synthesized with 95% purity (QYAOBIO, Suzhou, China). All the peptides were acetylated at the N-terminus and amidated at the C-terminus to mimic the native peptide structure. The peptides were dissolved in PBS to prepare 1 mM stock solutions for in vitro experiments and 5 mg/ml stock solutions for in vivo experiments.
# SLK.iBAC-GFP cells were treated with Dox (1 μg/ml) and sodium butyrate (0.5 mM) to induce lytic reactivation in the presence of indicated peptides (100 μM). The supernatants were collected at the specified time points and used to infect HEK293T cells at appropriate dilutions. The infected cells were collected, fixed, and analyzed by flow cytometry 24 h post-infection. FlowJo 10.0 software was used to analyze the data, and KSHV infectious units were quantified based on the percentage of GFP-positive cells.
# [6] = test system: KSHV lytic reactivation in OTUD4- or USP7-knockdown SLK.iBAC-GFP cells; type: cell-based
# [7] = test system: interaction between USP7 and p53; type: cell-based
# [8] = test system: KSHV lytic replication in BCBL-1-Tet-K-RTA cells; type: cell-based
# [9] = test system: interaction between murine USP7-TRAF and murine OTUD4; type: binding; details: GST pull-down
# [10] = test system: interaction between USP7 and ICP0; type: cell-based
# [11] = test system: KSHV lytic gene expression in BCBL-1-Tet-K-RTA cells; type: cell-based
# [12] = test system: KSHV genome replication in BCBL-1 cells; assay: Relative viral genomic copy number (latency) by qPCR in BCBL-1 cells; type: cell-based; details: 100 μM, 48 h
# [13] = test system: interaction between USP7 and MDM2; type: cell-based
# MHV68 in MLF cells = type: cell-based
# RTA in iSLK cells = type: cell-based, KSHV
# [14] = test system: KSHV lytic gene expression in SLK.iBAC-GFP cells; type: cell-based
# [15] = test system: interaction between OTUD4 and USP7-TRAF; assay: GST pull-down competition assay, human USP7-TRAF and FLAG-OTUD4; type: binding; details: 100 μM, 4 h
# SLK.iBAC-GFP cells = type: cell-based; details: Fig. 1F, 100 μM, 48 h
# Experimental: SLK.iBAC-GFP cells were seeded in a 96-well plate at a density of 1 × 10^5 cells/well. The cells were then treated with doxycycline (Dox, 1 μg/ml) and sodium butyrate (0.5 mM) to induce lytic reactivation in the presence of the indicated peptides (100 μM) for 48 h. After treatment and a 30-min equilibration at room temperature, CellTiter-Glo Reagent (Promega, G7570) was added in equal volumes to culture medium. Plates underwent orbital shaking (2 min) for lysis, followed by a 10-min incubation for signal stabilization and luminescence recording (0.25-1 sec integration).
# [16] = test system: KSHV latent gene transcription in BCBL-1 cells; type: cell-based
substance,measurement,setting,value
Ac-YGRKKRRQRRRGGVNQSASQSSN-NH2 [p8],Binding to the USP7-TRAF domain (in words),USP7-TRAF domain,specifically bound to the USP7-TRAF domain
same,Co-localization of OTUD4 and USP7 (in words),[1],disrupted the co-localization of OTUD4 and USP7
same,Viral protein levels (in words),[2],lower levels of viral proteins
same,Antiviral activity against MHV68 in NIH3T3 cells (in words),MHV68 in NIH3T3 cells,potent antiviral activity against MHV68
same,ORF9 viral gene expression,MHV68 in NIH3T3 cells,0.25 and 0.26
same,ORF25 viral gene expression,MHV68 in NIH3T3 cells,0.28 and 0.26
same,ORF50 viral gene expression,MHV68 in NIH3T3 cells,0.24 and 0.22 and 0.27
same,KSHV infectious units,[3],1.8648 and 1.9224 and 1.6488
same,Effect on OTUD4-promoted KSHV lytic replication (in words),[4],negated by p8
same,KSHV infectious units,[4],6.7 and 4.8 and 4.4 and 5.5 and 6.5 and 6.3
same,Effect on OTUD4-enhanced RTA protein level (in words),RTA in HEK293T cells,countered the promoting effect
same,KSHV progeny virion production (in words),"[5]; S2E Fig, 100 μM",significantly reduced KSHV progeny virion production
same,Inhibition of KSHV lytic reactivation (in words),"[5]; Tat-fused peptides, 100 μM or dose series, 48 h post-induction",effectively inhibited KSHV lytic reactivation in a dose-dependent manner; also recorded: efficiently suppressed KSHV lytic reactivation
same,Antiviral effect in OTUD4-deficient or USP7-deficient cells (in words),[6],abolished
same,Effect on USP7-p53 interaction (in words),[7],did not affect the interactions
same,KSHV genome copies in supernatants,[8],1.3 and 1.45 and 1.47
same,Progeny viral genomic copy number (in words),"[8]; 100 μM, 48 h",reduced progeny viral genomic copy number
same,"Relative inhibitory activity on murine USP7-TRAF/murine OTUD4 interaction, p8 vs p8-m (in words)",[9]; 100 μM (S5E Fig),slightly stronger inhibitory activity
same,Disruption of murine USP7-TRAF/murine OTUD4 interaction (in words),"[9]; 100 μM, 4 h (S5E Fig)",effectively disrupted the interaction
same,Effect on USP7-ICP0 interaction (in words),[10],did not affect the interactions
same,ORF25 gene expression,[11],0.73 and 0.71
same,ORF26 gene expression,[11],0.38 and 0.45 and 0.4
same,ORF50 gene expression,[11],0.4 and 0.44 and 0.49
same,ORF56 gene expression,[11],0.63 and 0.69 and 0.67
same,ORF57 gene expression,[11],0.5 and 0.43 and 0.54
same,Transcription of KSHV lytic genes (in words),[11]; 100 μM,decreased transcription of KSHV lytic genes
same,KSHV genome replication in latency (in words),[12],did not affect KSHV latent gene transcription or genome replication
same,Effect on USP7-MDM2 interaction (in words),[13],did not affect the interactions
same,Antiviral activity against MHV68 in MLF cells (in words),MHV68 in MLF cells,potent antiviral activity against MHV68
same,ORF9 viral gene expression,MHV68 in MLF cells,0.54 and 0.47 and 0.53
same,ORF25 viral gene expression,MHV68 in MLF cells,0.37 and 0.47 and 0.44
same,ORF50 viral gene expression,MHV68 in MLF cells,0.77 and 0.82 and 0.65
same,RTA protein level in iSLK cells (in words),RTA in iSLK cells,reduced the protein level of RTA
same,ORF25 gene expression,[14],0.63 and 0.71 and 0.72
same,ORF26 gene expression,[14],0.64 and 0.65 and 0.71
same,ORF50 gene expression,[14],0.69 and 0.8
same,ORF56 gene expression,[14],0.84 and 0.81 and 0.83
same,ORF57 gene expression,[14],0.74 and 0.75
same,"Transcription levels of ORF50, ORF56, ORF57, ORF25, ORF26 (in words)",[14],decreased the transcription levels of multiple viral genes
same,Disruption of OTUD4/USP7-TRAF interaction (in words),[15],effectively blocked the interaction between OTUD4 and USP7-TRAF
same,Cytotoxicity (in words),SLK.iBAC-GFP cells,minimal cytotoxicity
same,Cell viability (ATP levels),SLK.iBAC-GFP cells; replicate 1,91.6982
same,Cell viability (ATP levels),SLK.iBAC-GFP cells; replicate 2,88.8817
same,Cell viability (ATP levels),SLK.iBAC-GFP cells; replicate 3,95.2836
same,ORF71 mRNA expression,[16],1.01 and 1.03
same,ORF72 mRNA expression,[16],1.27 and 1.18 and 1.09
same,ORF73 mRNA expression,[16],0.87 and 0.86 and 0.96
same,KSHV latent gene transcription (in words),"[16]; 100 μM, 48 h",did not affect KSHV latent gene transcription
